Source: patent US6878751B1, “Administration of resveratrol to treat inflammatory respiratory disorders” (Imperial College of Science Technology and Medicine, priority 2000, dated 2005)

How the values were obtained:
[1] = system: Asthmatic steroid naive children; assay: Resveratrol substitution for glucocorticoids in asthmatic steroid naive children (Example 6); format: in vivo, human
Experimental: Asthmatic steroid naive children with asthma disease severe enough to require chronic pulmonary steroid therapy are divided randomly and blindly into three groups. The duration of the study should be long, as pulmonary steroids for asthma are a chronic therapy, thus 1 to 2 years or more is optimal. The first group is treated with oral resveratrol, with the group subdivided randomly and blindly into four approximately equal subgroups that receive either 0 (placebo), 200, 2000, or 3000 mg/day resveratrol for about 12 to 24 months in oral doses of 0, 50, 500, or 750 mg administered 4 times daily for about 12 to 24 months. […]
The methods of the following references may be used in the evaluation of asthmatic disease: Wohl et al. (2000) N. Engl. […] Patients are medically monitored for clinical symptoms of asthma throughout the study, including frequency and severity of acute asthma attacks. […] In addition exhaled nitric oxide (NO) and carbon monoxide (CO) levels may be measured at more frequent intervals, such as every other week. Forced expiratory volume (FEV) and forced inspiratory volume (FIV) are also evaluated to measure airway patency as a direct measure of clinical morbidity and to determine correlation the histopathologic and other indicators of clinical disease, such as exhaled NO. […]

[2] = system: Individuals at risk for ILD; assay: Oral resveratrol for chemoprevention of ILD in individuals at risk (Example 11); format: in vivo, human; conditions: 2 to 5 years
Experimental: Resveratrol is evaluated clinically for efficacy in chemoprevention of ILD in smokers. The study is generally patterned after the COPD chemoprevention study (Example 10) with modifications appropriate to the clinical and histopathologic evaluation of ILD, and the references listed in the preceding examples may be applied as appropriate. Individuals at risk with no disease or mild COPD are treated once or more per day with gelatin capsules containing resveratrol. A population of individuals at risk for a specific ILD, such as silicosis can be studied, or several such populations such as sand blasters (silicosis) and coal miners can be studied in parallel The different populations are subdivided into subpopulations: clinically and histopathologically disease free, clinically asymptomatic with histopathologic inflammation and mildly ILD symptomatic, meaning some fibrosis but no pulmonary impairment causing hypoxemia or acidosis. […] Patients are medically monitored for clinical symptoms of ILD throughout the study, including onset of symptoms and frequency and severity thereof. […] Forced expiratory volume (FEV) and forced inspiratory volume (FIV) are also evaluated to measure airway patency as a direct measure of clinical morbidity and to determine correlation the histopathologic and other indicators of clinical disease. […]

[3] = system: TRE dependent transcription; assay: TRE (AP-1) luciferase reporter in stably transfected A549 cells; format: cell-based, human
Experimental: The expression of inflammatory genes was then evaluated in cells transformed with luciferase reporter genes containing sites for transcription factors (Tf, Tfs). The A549 cells were stably transfected by routine methods with luciferase reporters containing the transcription factors NF-κB, TRE (AP-1, TPA responsive element) and CRE (cAMP responsive element). Luciferase activity of cell lysates resuspended in […] cell lysis buffer mixed (40 mml resuspended lysate: 40 mml assay reagent) was measured using the Luciferase Assay System (Promega), with emitted light measured by a Turner DesignsTD-20/20 luminometer (Steptech Instruments Ltd., Stevenage, U.K.)

[4] = system: GM-CSF release, A549 cells; assay: GM-CSF release (sandwich assay) in IL-1β stimulated A549 cells; format: cell-based; conditions: Homo sapiens, 1 ng/ml IL-1β, read-out: EC50 for inhibition of GM-CSF release
Experimental: The human airway epithelial cell line A549 may be employed to study resveratrol inhibition of the release of IL-8 (interleukin 8) and GM-CSF (granulocyte macrophage-colony stimulating factor) by a 1 ng/ml stimulation with IL-1β (interleukin 1β). A549 cells, BEAS-2B cells and 16HBE-16o^− cells were stimulated with 1 ng/ml levels of IL-1β in the presence of resveratrol.
Cells, including the A549 cells, were cultured in Dulbecco's modified Eagle's medium (DMEM) 10% (v/v) fetal calf serum (FCS), 100 μg/ml penicillin and 100 μg/ml streptomycin. IL-8 release was measured by commercially available ELISA kit (R&D Systems).
GM-CSF release was measured in culture media by sandwich assay employing rat monoclonal capture antibody (Ab, mAb) against GM-CSF and a biotinylated rat anti-human GM-CSF mAb. The rat capture mAb against GM-CSF, diluted 1:500 in 0.1 M NaHCO3, was coated overnight at 4° C. onto 96 well plates. After washing, with wash buffer (NaCl: 145 mM, KCl: 4 mM, NaH2PO4: 10 mM, Tween-20: 0.05% (v/v), pH: 7.4) the plates were blocked by application of 10% (v/v) FCS at room temperature for 2 hours. After washing, samples and standards were added to the well plates and incubated at 4° C. overnight. […]

Oc1ccc(/C=C/c2cc(O)cc(O)c2)cc1 [Resveratrol, 3,5,4′-trihydroxystilbene]
efficacy as substitute for inhaled steroids in treating asthma ([1]; oral or pulmonary resveratrol vs pulmonary budenoside, 12 to 24 months): effective as substitutes for antiinflammatory treatment with inhaled steroids in treating asthma
systemic side effects compared with inhaled glucocorticoids ([1]; oral or pulmonary resveratrol, including suppression of growth): reduced systemic side effects
side effects ([2]; oral, relative to those expected from steroid administration): without significant side effects
efficacy in chemoprevention of ILD ([2]; oral, 200, 2000 or 3000 mg/day): effective for chemoprevention of ILD
extent of inhibition of TRE dependent transcription [3]: 85%
EC50 ([3]; Homo sapiens, read-out: EC50 for inhibition of TRE dependent transcription): 7 ± 4 µM
EC50 [4]: 22 ± 8 µM
